The text below walks through data of patent publication US8853203B2, “Diazepinone derivatives” (Novartis AG, priority 2012, dated 2014).

Molecules are shown by their SMILES.

In one assay the target is human mGluR5a receptors (Homo sapiens (Human), UniProt P41594). The assay can be described thus: inhibition of glutamate-induced elevation of intracellular calcium in L(tk-) cells expressing human mGluR5a. Conditions: for IC50: glutamate-induced intracellular calcium elevation, L(tk-) cells expressing human mGluR5a, read-out: mGluR5 IC50. It is filed as cell-based. The source says: Activity of compounds of the present invention was examined by determination to what extent the glutamate-induced elevation of the intracellular calcium concentration in L(tk-) cells expressing human mGluR5a receptors (see L. P. Daggett et al., Neuropharm. Vol. 34, pages 871-886, 1995) is inhibited by utilizing methods as described e.g. by L. P. Daggett et al., Neuropharm. Vol. 34, pages 871-886 (1995) and P. J. Flor et al., J. Neurochem. Vol. 67, pages 58-63 (1996).
A general note: A change in cytosolic calcium serves as a functional read-out for many receptors and channels.

Another assay concerns the target human mGluR1 (Homo sapiens (Human), UniProt Q13255). The assay can be described thus: mGluR1 antagonism, L-glutamate induced intracellular calcium increase (FLIPR) in CHO cells stably expressing human mGluR1. Conditions: for IC50: L-glutamate induced intracellular calcium, CHO cells expressing human mGluR1, FLIPR; for inhibition at 10 µM: CHO. It is filed as cell-based. The source says:
Activity of compounds of the present invention with respect to mGluR1 antagonism was examined by an assay based on measurements of L-glutamate induced intracellular calcium increases using a 96 well plate-based Fluorometric Imaging Plate Reader (FLIPR), and CHO cells stably expressing human mGluR1. L-glutamate induced robust calcium responses via human mGluR1 in a concentration-dependent manner and in the low micromolar range. The table below represents IC50 values of the inhibition of the glutamate-induced elevation of the intracellular calcium concentration.

human mGluR1, sequence (Q13255 19-1194): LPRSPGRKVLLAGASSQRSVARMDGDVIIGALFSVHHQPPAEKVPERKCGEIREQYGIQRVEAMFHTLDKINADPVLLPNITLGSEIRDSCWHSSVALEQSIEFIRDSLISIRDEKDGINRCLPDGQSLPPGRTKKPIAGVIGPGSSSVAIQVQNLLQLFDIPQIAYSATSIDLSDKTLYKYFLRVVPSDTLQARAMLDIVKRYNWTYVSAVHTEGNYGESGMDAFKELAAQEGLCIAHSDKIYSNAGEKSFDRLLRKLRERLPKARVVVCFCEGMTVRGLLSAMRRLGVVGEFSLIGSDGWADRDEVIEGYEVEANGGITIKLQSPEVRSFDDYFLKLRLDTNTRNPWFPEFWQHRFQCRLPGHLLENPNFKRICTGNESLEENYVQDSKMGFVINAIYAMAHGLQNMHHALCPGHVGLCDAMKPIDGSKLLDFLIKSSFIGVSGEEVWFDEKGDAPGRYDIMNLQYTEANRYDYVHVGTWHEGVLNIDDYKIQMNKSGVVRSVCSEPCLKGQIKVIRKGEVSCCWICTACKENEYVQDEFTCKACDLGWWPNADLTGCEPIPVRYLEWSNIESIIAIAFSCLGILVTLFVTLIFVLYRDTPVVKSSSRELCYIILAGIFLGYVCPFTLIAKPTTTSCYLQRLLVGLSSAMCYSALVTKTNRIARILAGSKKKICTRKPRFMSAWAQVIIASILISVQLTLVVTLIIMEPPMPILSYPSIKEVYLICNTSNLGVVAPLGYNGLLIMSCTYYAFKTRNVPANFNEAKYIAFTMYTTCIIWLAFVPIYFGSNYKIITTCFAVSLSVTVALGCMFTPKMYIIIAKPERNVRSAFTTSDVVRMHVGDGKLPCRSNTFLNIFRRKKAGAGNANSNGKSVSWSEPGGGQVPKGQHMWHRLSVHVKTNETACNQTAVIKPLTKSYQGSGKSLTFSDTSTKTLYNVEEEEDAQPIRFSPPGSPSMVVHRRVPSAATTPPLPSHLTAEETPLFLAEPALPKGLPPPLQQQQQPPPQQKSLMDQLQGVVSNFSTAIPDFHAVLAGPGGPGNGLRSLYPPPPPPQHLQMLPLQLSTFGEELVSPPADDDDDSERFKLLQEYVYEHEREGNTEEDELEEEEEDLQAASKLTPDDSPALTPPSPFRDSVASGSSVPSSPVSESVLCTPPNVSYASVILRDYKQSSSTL
human mGluR5a receptors, sequence (P41594 other isoform, or with tags, fused parts or gaps): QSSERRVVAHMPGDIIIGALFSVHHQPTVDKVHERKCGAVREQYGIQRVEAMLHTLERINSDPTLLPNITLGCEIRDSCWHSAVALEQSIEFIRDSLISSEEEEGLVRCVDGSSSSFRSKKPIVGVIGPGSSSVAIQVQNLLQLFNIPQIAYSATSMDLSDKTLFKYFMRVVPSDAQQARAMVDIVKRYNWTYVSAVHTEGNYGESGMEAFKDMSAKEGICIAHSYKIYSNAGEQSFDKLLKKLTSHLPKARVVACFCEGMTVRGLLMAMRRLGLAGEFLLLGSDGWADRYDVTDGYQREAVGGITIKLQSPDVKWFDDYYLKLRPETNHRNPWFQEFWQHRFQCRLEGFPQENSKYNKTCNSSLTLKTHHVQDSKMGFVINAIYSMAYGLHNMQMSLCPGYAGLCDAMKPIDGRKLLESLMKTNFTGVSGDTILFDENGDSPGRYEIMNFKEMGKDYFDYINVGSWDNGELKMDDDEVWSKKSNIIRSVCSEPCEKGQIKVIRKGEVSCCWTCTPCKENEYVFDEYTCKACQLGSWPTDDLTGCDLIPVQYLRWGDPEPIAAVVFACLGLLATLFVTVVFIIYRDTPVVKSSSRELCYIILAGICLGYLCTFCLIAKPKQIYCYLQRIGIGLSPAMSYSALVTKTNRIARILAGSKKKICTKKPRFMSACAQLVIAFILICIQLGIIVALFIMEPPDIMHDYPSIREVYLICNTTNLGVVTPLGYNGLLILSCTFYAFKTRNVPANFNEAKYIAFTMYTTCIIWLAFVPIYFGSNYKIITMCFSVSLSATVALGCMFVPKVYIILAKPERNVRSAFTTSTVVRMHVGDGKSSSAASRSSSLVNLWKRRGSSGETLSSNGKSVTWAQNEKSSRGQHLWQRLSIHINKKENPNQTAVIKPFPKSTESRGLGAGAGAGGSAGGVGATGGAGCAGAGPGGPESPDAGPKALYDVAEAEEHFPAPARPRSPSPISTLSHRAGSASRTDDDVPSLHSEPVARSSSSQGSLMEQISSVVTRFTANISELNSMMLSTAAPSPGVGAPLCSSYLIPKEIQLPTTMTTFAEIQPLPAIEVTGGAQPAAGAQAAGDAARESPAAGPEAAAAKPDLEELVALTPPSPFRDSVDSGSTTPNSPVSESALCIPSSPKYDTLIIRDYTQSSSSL

On to `O=C1CN=C(n2cnc(-c3ccncc3)c2)C=C2c3cccc(C4CC4)c3CCN12` [Example 123f, 9-cyclopropyl-2-(4-(pyridin-4-yl)-1H-imidazol-1-yl)-7,8-dihydro-[1,4]diazepino[7,1-a]isoquinolin-5(4H)-one], for which the results for the IC50 on human mGluR5a receptors and at human mGluR1 were 108 nM and above 2000 nM, respectively.
On the same counts, the results for `O=C1CN=C(c2ccoc2)C=C2c3cccc(-c4ccncc4)c3CCN12` [Example 51, 2-(furan-3-yl)-9-(pyridin-4-yl)-7,8-dihydro-[1,4]diazepino[7,1-a]isoquinolin-5(4H)-one] are 35 nM and above 10000 nM.
The corresponding values for `CO[C@@H](C)c1cn(C2=NCC(=O)N3CCc4c(cccc4C4CC4)C3=C2)cn1` [Example 122, (S)-9-cyclopropyl-2-(4-(1-methoxyethyl)-1H-imidazol-1-yl)-7,8-dihydro-[1,4]diazepino[7,1-a]isoquinolin-5(4H)-one] are 5 nM and 1100 nM.
On the same counts, the results for `COc1ccc(C2=NCC(=O)N3CCc4c(OC)cccc4C3=C2)cc1` [Example 17, 9-methoxy-2-(4-methoxyphenyl)-7,8-dihydro-[1,4]diazepino[7,1-a]isoquinolin-5(4H)-one] are 2200 nM and above 10000 nM.
Regarding `O=C1CN=C(c2cccs2)C=C2c3cccc(C(F)(F)F)c3CCN12` [Example 4, 2-(thiophen-2-yl)-9-(trifluoromethyl)-7,8-dihydro-[1,4]diazepino[7,1-a]isoquinolin-5(4H)-one], the values for the IC50 at human mGluR5a receptors and at human mGluR1 were 180 nM and 150 nM, respectively.
Turning to `Cc1nc(-c2cccc3c2CCN2C(=O)CN=C(n4cnc(C5CC5)n4)C=C32)co1` [Example 108a, 2-(3-cyclopropyl-1H-1,2,4-triazol-1-yl)-9-(2-methyloxazol-4-yl)-7,8-dihydro-[1,4]diazepino[7,1-a]isoquinolin-5(4H)-one], the IC50 (in general, the concentration that gives 50% inhibition) at human mGluR5a receptors was 91 nM; at human mGluR1 it was above 10000 nM.
The corresponding values for `CCc1cn(C2=NCC(=O)N3CCc4c(cccc4C4CCCO4)C3=C2)cn1` (racemic) [Example 111, 2-(4-ethyl-1H-imidazol-1-yl)-9-(tetrahydrofuran-2-yl)-7,8-dihydro-[1,4]diazepino[7,1-a]isoquinolin-5(4H)-one] are 53 nM and 9300 nM.
Take `Cc1cnc(-c2cccc3c2CCN2C(=O)CN=C(n4cnc(C5CC5)c4)C=C32)o1` [Example 88, 2-(4-cyclopropyl-1H-imidazol-1-yl)-9-(5-methyloxazol-2-yl)-7,8-dihydro-[1,4]diazepino[7,1-a]isoquinolin-5(4H)-one]: on human mGluR5a receptors, the IC50 stood at 131 nM. Besides, the inhibition (in general, the relative decrease from the control value, in per cent) at 10 µM on human mGluR1 worked out at 47%.
As to `CC1=C2c3cccc(-c4cc(C)no4)c3CCN2C(=O)CN=C1n1cnc(C2CC2)c1` [Example 107, 2-(4-cyclopropyl-1H-imidazol-1-yl)-1-methyl-9-(3-methylisoxazol-5-yl)-7,8-dihydro-[1,4]diazepino[7,1-a]isoquinolin-5(4H)-one], the IC50 is 835 nM on human mGluR5a receptors and above 10000 nM at human mGluR1.
On to `O=C1CN=C(n2cnc(C3CC3)c2)C=C2c3cccc(-c4ccnc(F)c4)c3CCN12` [Example 99g, 2-(4-cyclopropyl-1H-imidazol-1-yl)-9-(2-fluoropyridin-4-yl)-7,8-dihydro-[1,4]diazepino[7,1-a]isoquinolin-5(4H)-one], for which the half-inhibitory concentration (IC50) came to 220 nM at human mGluR5a receptors and 18200 nM on human mGluR1.
Turning to `CO[C@H](C)c1cn(C2=NCC(=O)N3CCc4c(ccnc4C4CC4)C3=C2)cn1` [Example 110c, (R)-9-cyclopropyl-2-(4-(1-methoxyethyl)-1H-imidazol-1-yl)-7,8-dihydro-[1,4]diazepino[7,1-a][2,6]naphthyridin-5(4H)-one], on human mGluR5a receptors (LTK, read-out: mGluR5 % inhibition at 2 μM), the inhibition at 2 µM is 72%. Also, the IC50 on human mGluR1 is above 10000 nM.
`O=C1CN=C(n2cnc(C3CC3)c2)C=C2c3cccc(-c4cnccn4)c3CCN12` [Example 88f, 2-(4-Cyclopropyl-1H-Imidazol-1-yl)-9-(pyrazin-2-yl)-7,8-dihydro-[1,4]diazepino[7,1-a]isoquinolin-5(4H)-one]: the IC50 at human mGluR5a receptors turned out to be 100 nM; at human mGluR1 it was 1950 nM.
On to `CCCc1cccc2c1CCN1C(=O)CN=C(n3cnc(-c4ncco4)c3)C=C21` [Example 88a, 2-(4-(oxazol-2-yl)-1H-imidazol-1-yl)-9-propyl-7,8-dihydro-[1,4]diazepino[7,1-a]isoquinolin-5(4H)-one], for which the IC50 on human mGluR5a receptors was determined as 5 nM. Further, the inhibition at 10 µM at human mGluR1 came out at 24%.
Consider `COc1cc(C2=NCC(=O)N3CCc4c(cccc4-c4ccccn4)C3=C2)ccn1` [Example 50, 2-(2-methoxypyridin-4-yl)-9-(pyridin-2-yl)-7,8-dihydro-[1,4]diazepino[7,1-a]isoquinolin-5(4H)-one], for which the values for the IC50 on human mGluR5a receptors and at human mGluR1 were 46 nM and above 10000 nM, respectively.
With `COCCc1cn(C2=NCC(=O)N3CCc4c(cccc4-c4ccc(F)nc4)C3=C2)cn1` [Example 84, 9-(6-fluoropyridin-3-yl)-2-(4-(2-methoxyethyl)-1H-imidazol-1-yl)-7,8-dihydro-[1,4]diazepino[7,1-a]isoquinolin-5(4H)-one], the IC50 is 28 nM at human mGluR5a receptors and above 10000 nM at human mGluR1.
As to `N#Cc1cn(C2=NCC(=O)N3CCc4c(I)cccc4C3=C2)cn1` [Example 64, 1-(9-iodo-5-oxo-4,5,7,8-tetrahydro-[1,4]diazepino[7,1-a]isoquinolin-2-yl)-1H-imidazole-4-carbonitrile], the IC50 was 4300 nM on human mGluR5a receptors and above 10000 nM at human mGluR1.
As for `CCc1cn(C2=NCC(=O)N3CCc4c(cccc4-c4ccc(F)cc4)C3=C2)cn1` [Example 86, 2-(4-ethyl-1H-imidazol-1-yl)-9-(4-fluorophenyl)-7,8-dihydro-[1,4]diazepino[7,1-a]isoquinolin-5(4H)-one], the IC50 on human mGluR5a receptors came out at 12 nM; at human mGluR1 it was 5900 nM.
As for `CCc1cc(C2=NCC(=O)N3CCc4c(OC)cccc4C3=C2)ccn1` [Example 10, 2-(2-ethylpyridin-4-yl)-9-methoxy-7,8-dihydro-[1,4]diazepino[7,1-a]isoquinolin-5(4H)-one], the IC50 on human mGluR5a receptors came out at 345 nM; on human mGluR1, 940 nM.
For the compound `CCc1cn(C2=NCC(=O)N3CCc4c(cccc4-c4ccco4)C3=C2)cn1` [Example 75, 2-(4-ethyl-1H-imidazol-1-yl)-9-(furan-2-yl)-7,8-dihydro-[1,4]diazepino[7,1-a]isoquinolin-5(4H)-one], the IC50 at human mGluR5a receptors stood at 9 nM; at human mGluR1 it was 170 nM.
For `O=C1CN=C(n2cnc(CO)c2)C=C2c3cccc(I)c3CCN12` [Example 65, 2-(4-(hydroxymethyl)-1H-imidazol-1-yl)-9-iodo-7,8-dihydro-[1,4]diazepino[7,1-a]isoquinolin-5(4H)-one], the results for the IC50 at human mGluR5a receptors and at human mGluR1 were 210 nM and 1500 nM, respectively.
Turning to `Cc1cn(C2=NCC(=O)N3CCc4c(cccc4-c4cnc(C)o4)C3=C2)cn1` [Example 99a, 2-(4-methyl-1H-imidazol-1-yl)-9-(2-methyloxazol-5-yl)-7,8-dihydro-[1,4]diazepino[7,1-a]isoquinolin-5(4H)-one], the IC50 at human mGluR5a receptors is 77 nM; at human mGluR1, above 10000 nM.
As to `O=C1CN=C(n2cnc(C3CC3)c2)C=C2c3cccc(-n4nccn4)c3CCN12` [Example 138, 2-(4-cyclopropyl-1H-imidazol-1-yl)-9-(2H-1,2,3-triazol-2-yl)-7,8-dihydro-[1,4]diazepino[7,1-a]isoquinolin-5(4H)-one], the figures for the IC50 on human mGluR5a receptors and on human mGluR1 were 79 nM and 1480 nM, respectively.
